From ChEMBL document CHEMBL1201862, “PubChem BioAssay data set” (2004)
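Briefly, cells in 96-well plates were exposed to five compound concentrations for 48 h, and endpoints were estimated by linear interpolation. The concentration for 50% growth inhibition is given as GI50.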 The source made the active and inactive calls. Rule as the data show it: active = GI50 up to about 1.1 µM and inactive = higher.

How the values were obtained:
Assay in all cases: DTP human tumour cell line panel, 48 h
[1] = test system: MCF7
[2] = test system: NCI-H460
[3] = test system: DU-145
[4] = test system: OVCAR-3
[5] = test system: MOLT-4
[6] = test system: HCT-15
[7] = test system: 786-0
[8] = test system: SK-OV-3
[9] = test system: HCC 2998
[10] = test system: NCI-H226
[11] = test system: SF-268
[12] = test system: M14
[13] = test system: RXF 393
[14] = test system: EKVX
[15] = test system: UACC-257
[16] = test system: NCI-H23
[17] = test system: SW-620
[18] = test system: MDA-MB-231
[19] = test system: HOP-92

COc1cccc(C(=O)Nc2c3ccccc3nc3ccccc23)c1OC
GI50 [1]: > 100 µM (inactive)
GI50 [2]: 76.2 µM (inactive)
GI50 [3]: > 100 µM (inactive)
GI50 [4]: > 100 µM (inactive)
GI50 [5]: > 100 µM (inactive)
GI50 [6]: > 100 µM
GI50 [7]: 52.2 µM (inactive)
GI50 [8]: 51.9 µM (inactive)
GI50 [9]: > 100 µM (inactive)
GI50 [10]: > 100 µM (inactive)
GI50 [11]: 74.1 µM (inactive)
GI50 [12]: > 100 µM (inactive)
GI50 [13]: 23.4 µM (inactive)
GI50 [14]: > 100 µM (inactive)
GI50 [15]: > 100 µM (inactive)
GI50 [16]: > 100 µM (inactive)
GI50 [17]: > 100 µM (inactive)
GI50 [18]: > 100 µM (inactive)

CC1=NN(c2nc(N)nc(CF)n2)C(C)(C)C1
GI50 [1]: > 100 µM (inactive)
GI50 [2]: > 100 µM (inactive)
GI50 [3]: > 100 µM (inactive)
GI50 [5]: > 100 µM (inactive)
GI50 [6]: > 100 µM
GI50 [7]: > 100 µM (inactive)
GI50 [8]: > 100 µM (inactive)
GI50 [9]: > 100 µM (inactive)
GI50 [10]: > 100 µM (inactive)
GI50 [11]: > 100 µM (inactive)
GI50 [12]: > 100 µM (inactive)
GI50 [13]: > 100 µM (inactive)
GI50 [14]: > 100 µM (inactive)
GI50 [19]: > 100 µM (inactive)
GI50 [15]: > 100 µM (inactive)
GI50 [16]: > 100 µM (inactive)
GI50 [17]: > 100 µM (inactive)
GI50 [18]: > 100 µM (inactive)

CC1(C)O[C@@H]2[C@@H](COC(=O)c3ccccc3)C[C@@H](C#N)[C@@H]2O1
GI50 [1]: > 100 µM (inactive)
GI50 [2]: > 100 µM (inactive)
GI50 [3]: > 100 µM (inactive)
GI50 [4]: > 100 µM (inactive)
GI50 [5]: > 100 µM (inactive)
GI50 [6]: > 100 µM
GI50 [7]: > 100 µM (inactive)
GI50 [8]: > 100 µM (inactive)
GI50 [9]: > 100 µM (inactive)
GI50 [10]: > 100 µM (inactive)
GI50 [11]: > 100 µM (inactive)
GI50 [12]: > 100 µM (inactive)
GI50 [13]: > 100 µM (inactive)
GI50 [19]: > 100 µM (inactive)
GI50 [16]: > 100 µM (inactive)
GI50 [17]: > 100 µM (inactive)
GI50 [18]: > 100 µM (inactive)

CC(=O)Oc1ccc2c(c1)O/C(=C\c1ccc(O)cc1)C2=O
GI50 [1]: > 100 µM (inactive)
GI50 [2]: > 100 µM (inactive)
GI50 [3]: > 100 µM (inactive)
GI50 [4]: > 100 µM (inactive)
GI50 [5]: > 100 µM (inactive)
GI50 [6]: > 100 µM
GI50 [7]: > 100 µM (inactive)
GI50 [8]: > 100 µM (inactive)
GI50 [9]: > 100 µM (inactive)
GI50 [10]: > 100 µM (inactive)
GI50 [11]: > 100 µM (inactive)
GI50 [12]: > 100 µM (inactive)
GI50 [13]: > 100 µM (inactive)
GI50 [14]: > 100 µM (inactive)
GI50 [15]: > 100 µM (inactive)
GI50 [16]: > 100 µM (inactive)
GI50 [17]: > 100 µM (inactive)
GI50 [18]: > 100 µM (inactive)

COC(=O)C1CC2(CCC1=O)Cc1ccccc1C2=O (configuration not stated)
GI50 [1]: > 100 µM (inactive)
GI50 [2]: > 100 µM (inactive)
GI50 [3]: > 100 µM (inactive)
GI50 [5]: 48.5 µM (inactive)
GI50 [6]: > 100 µM
GI50 [7]: > 100 µM (inactive)
GI50 [8]: > 100 µM (inactive)
GI50 [9]: > 100 µM (inactive)
GI50 [10]: 47.4 µM (inactive)
GI50 [11]: > 100 µM (inactive)
GI50 [12]: > 100 µM (inactive)
GI50 [13]: 14.5 µM (inactive)
GI50 [14]: 89.5 µM (inactive)
GI50 [15]: > 100 µM (inactive)
GI50 [16]: > 100 µM (inactive)
GI50 [17]: > 100 µM (inactive)
GI50 [18]: > 100 µM (inactive)

COC1C=COC2(C)Oc3c(C)c(O)c4c(O)c(c(C5SCCS5)c(O)c4c3C2=O)NC(=O)C(C)=C/C=C\C(C)C2OC(C)(C)OC(C2C)C(C)C(OC(C)=O)C1C (configuration not stated)
GI50 [1]: 2.92 µM (inactive)
GI50 [2]: 4.21 µM (inactive)
GI50 [3]: 8.93 µM (inactive)
GI50 [4]: 4.78 µM (inactive)
GI50 [5]: 3.83 µM (inactive)
GI50 [6]: 5.6 µM
GI50 [7]: 10.1 µM (inactive)
GI50 [8]: 17.1 µM (inactive)
GI50 [9]: 5.15 µM (inactive)
GI50 [10]: 6.71 µM (inactive)
GI50 [11]: 7.33 µM (inactive)
GI50 [12]: 9.31 µM (inactive)
GI50 [13]: 7.21 µM (inactive)
GI50 [19]: 5.55 µM (inactive)
GI50 [15]: 2.74 µM (inactive)
GI50 [16]: 6.44 µM (inactive)
GI50 [17]: 7 µM (inactive)
GI50 [18]: 13.6 µM (inactive)

OCCOCCO[P+]1(OCCOCCO)n2c3ccc2C(c2ccccc2)=C2C=CC(=N2)C(c2ccccc2)=c2ccc(n21)=C(c1ccccc1)C1=NC(=C3c2ccccc2)C=C1
GI50 [1]: 0.109 µM (active)
GI50 [2]: 0.076 µM (active)
GI50 [3]: 0.112 µM (active)
GI50 [4]: 0.033 µM (active)
GI50 [5]: 0.0267 µM (active)
GI50 [6]: 1.51 µM
GI50 [7]: 0.179 µM (active)
GI50 [8]: 0.0859 µM (active)
GI50 [9]: 0.0378 µM (active)
GI50 [10]: 0.162 µM (active)
GI50 [11]: 0.0618 µM (active)
GI50 [12]: 0.272 µM (active)
GI50 [13]: 0.548 µM (active)
GI50 [14]: 0.32 µM (active)
GI50 [15]: 0.0268 µM (active)
GI50 [16]: 0.105 µM (active)
GI50 [17]: 0.184 µM (active)
GI50 [18]: 0.0736 µM (active)

CC(=O)O[C@H]1C(=O)[C@@]2(C)[C@H]([C@H](OC(=O)c3ccccc3)[C@]3(O)C[C@H](OC(=O)[C@H](O)[C@@H](NC(=O)C(C)(O)C(C)O)c4ccccc4)C(C)=C1C3(C)C)[C@]1(OC(C)=O)CO[C@@H]1C[C@@H]2O (some centres not stated)
GI50 [1]: 0.076 µM (active)
GI50 [2]: 0.282 µM (active)
GI50 [3]: 0.927 µM (active)
GI50 [4]: 0.172 µM (active)
GI50 [5]: 0.282 µM (active)
GI50 [6]: 17 µM
GI50 [7]: 1.33 µM (inactive)
GI50 [8]: 0.231 µM (active)
GI50 [9]: 0.141 µM (active)
GI50 [11]: 0.31 µM (active)
GI50 [12]: 0.337 µM (active)
GI50 [13]: 0.316 µM (active)
GI50 [14]: > 50 µM (inactive)
GI50 [19]: 0.44 µM (active)
GI50 [15]: 0.381 µM (active)
GI50 [16]: 0.282 µM (active)
GI50 [17]: 0.195 µM (active)
GI50 [18]: 0.359 µM (active)
